Source: PMC8228121, “Super-Cationic Peptide Dendrimers—Synthesis and Evaluation as Antimicrobial Agents” (Antibiotics, 2021)
In brackets after ≈: the same amount, converted by molar mass. Where two headings read alike, the source gives them in different places. Bridge positions count the residues as written; N and C are the ends. Square brackets hold non-standard residues; d marks the D form. Side chains are listed from the residue outwards. Peptide text beside a SMILES is read from it. I, II: the chains in the order shown. Orn = NCCC[C@H](N)C(=O)O

Assays:
P. aeruginosa ATCC 27853 = assay: microbe, parasite or virus in culture; type: cell-based, Pseudomonas aeruginosa
Procedure: (§1) Clinical isolates of CRE, MRSA and VRE were obtained from Lancet Laboratories, Durban, South Africa, with approval BE394/15 from the Biomedical Research Ethical Committee of the University of KwaZulu-Natal. Five reference strains of bacteria, namely Escherichia coli ATCC 25922, Pseudomonas aeruginosa ATCC 27853, Enterococcus faecium ATCC 35667, Staphylococcus aureus ATCC 29213 and Bacillus subtilis ATCC 6051 were supplied by the American Type Culture Collection (ATCC).
(§2) MIC values were determined by the broth microdilution method and the significance of the values obtained was interpreted following the guidelines of the Clinical and Laboratory Standards for Antimicrobial Susceptibility Testing.. The effect of human serum on the antimicrobial effect of the molecules tested was determined in a similar way to the MIC method used above in a solution of 50% human serum plus Mueller–Hinton broth.

E. coli ATCC 25822 = assay: microbe, parasite or virus in culture; type: cell-based, Escherichia coli
Procedure: as §1, §2

HepG2 cells = assay: MTT cytotoxicity assay; type: cell-based, human; conditions: HepG2, range of concentrations tested
Procedure: (§4) Cell viability was evaluated using the colorimetric MTT assay [21]. Human hepatocarcinoma (HepG2) cells and human embryonic kidney 293 (HEK-293) cells used in the drug toxicity assays were obtained from Cellonex (Johannesburg, South Africa). Viable HepG2 and HEK293 cells (20,000 cells/well) were seeded into a 96-well microtiter plate (200 µL) and allowed to attach overnight. The cells were exposed to varying concentrations of the peptides for 24 h. After removal of the treatment medium, 20 µL of MTT salt solution (5 mg/mL in 0.1M phosphate buffer saline (PBS)) and 100 µL of complete cell culture medium (CCM) were added to each well. After a 4 h (37 °C) incubation, the MTT salt solution was discarded and 100 μL of dimethyl sulphoxide (DMSO) were added to each well (1 h, 37 °C). The optical density of the solubilized formazan product was measured at 570 nm (reference λ of 690 nm) using a Bio-tek μQuant spectrophotometer (Winooski, VT, USA). […] GraphPad Prism (V5) (La Jolla, CA, USA) was used to obtain the half maximum inhibitory concentration (IC50) for each compound.

B. subtilis ATCC 6051 = assay: microbe, parasite or virus in culture; type: cell-based, Bacillus subtilis
Procedure: as §1, §2

S. aureus ATCC 29213 = assay: microbe, parasite or virus in culture; type: cell-based, Staphylococcus aureus
Procedure: as §1, §2

E. faecium ATCC 35667 = assay: microbe, parasite or virus in culture; type: cell-based, Enterococcus faecium
Procedure: as §1, §2

P. aeruginosa [1] = assay: Effect on bacterial growth curves; type: cell-based
Procedure: (§3) The study of the growth dynamic of the S. aureus, E. coli and P.aeruginosa strains against CAMPDs were assayed with a starting inoculum of 10^6–10^8 CFU/mL in a 10 mL specific falcon tube. The experiment was performed by a real-time reverse-spin bioreactor RTS-1 (Biosan SIA, Riga, Latvia) that applies non-invasive, mechanically driven rotation; thus, the cell suspension is mixed efficiently, mixing and oxygening the culture at 37 °C. Cell growth kinetics were recorded non-invasively in real time from data obtained from a near-infrared optical system, every 15 min.

MTT cytotoxicity assay = type: cell-based, human; conditions: human, HepG2 cells, HepG2, 24 h exposure
Procedure: as §4

in vitro = conditions: human
Procedure: as §4

[2] = test system: MRSA (methicillin-resistant S. aureus) isolates; assay: microbe, parasite or virus in culture; type: cell-based; conditions: methicillin-resistant ) isolates
Procedure: as §1, §2

CRE, E. coli isolates = assay: microbe, parasite or virus in culture; type: cell-based; conditions: Escherichia coli
Procedure: as §1, §2

S. aureus = assay: Effect on bacterial growth curves; type: cell-based; conditions: at MIC, ½ MIC and ¼ MIC
Procedure: as §3

E. coli = assay: Effect on bacterial growth curves; type: cell-based; conditions: irrespective of concentration (MIC, ½ MIC and ¼ MIC)
Procedure: as §3

P. aeruginosa [3] = assay: Time–kill curves; type: cell-based
Procedure: Killing curve assays were performed with a starting inoculum of 6 × 10^6 CFU/mL. […] Antimicrobials were added to 5 mL of bacteria in the exponential phase of growth and incubated at 37 °C with shaking. Samples were obtained aseptically at 0, 1, 2, 4, 6 and 24 h, diluted in Ringer 1/4 and plated on TSA for colony counting. The response of microbial strains to a single antimicrobial was determined by lowering logarithms of viable bacteria. In accordance with Lora-Tamayo et al., an antimicrobial was considered active when a reduction of ≥1 log10 relative to the initial inoculum was observed.

Procedure for HEK293 cells: as §4

| Compound | MBC (P. aeruginosa ATCC 27853; ATCC 27853) [µg/mL] | MIC (P. aeruginosa ATCC 27853; ATCC 27853) [µg/mL] | MBC (E. coli ATCC 25822; ATCC 25822) [µg/mL] | MIC (E. coli ATCC 25822; ATCC 25822) [µg/mL] | MBC (B. subtilis ATCC 6051; ATCC 6051) [µg/mL] | MIC (B. subtilis ATCC 6051; ATCC 6051) [µg/mL] | MBC (S. aureus ATCC 29213; ATCC 29213) [µg/mL] | MIC (S. aureus ATCC 29213; ATCC 29213) [µg/mL] | MIC (E. faecium ATCC 35667; ATCC 35667) [µg/mL] | effect on growth curve (P. aeruginosa [1]; at ½ MIC or ¼ MIC) | IC50 at 24 h (MTT cytotoxicity assay) [µg/mL] | IC50 at 24 h (in vitro) [µg/mL] | MBC (E. faecium ATCC 35667; ATCC 35667) [µg/mL] | MIC [2] [µg/mL] | effect on growth curve (S. aureus) | effect on growth curve (E. coli) | other results |
| --- | --- | --- | --- | --- | --- | --- | --- | --- | --- | --- | --- | --- | --- | --- | --- | --- | --- |
| CC(C)C[C@H](NC(=O)[C@H](CC(C)C)NC(=O)[C@H](CCCCN)NC(=O)[C@H](CC(C)C)NC(=O)[C@H](CC(C)C)NC(=O)[C@H](CCCCNC(=O)[C@H](CCCCN)NC(=O)[C@H](CC(C)C)NC(=O)[C@@H](N)CCCCN)NC(=O)[C@H](CCCCN)NC(=O)[C@H](CC(C)C)NC(=O)[C@@H](N)CCCCN)C(N)=O [G1KLK-L2KL2, (KLK)2KLLKLL-NH2] (H-KLKK([Lys-Leu-Lys])LLKLL-NH2) | 32 (≈ 21.8 µM) | 32 (≈ 21.8 µM) | 32 (≈ 21.8 µM) | 32 (≈ 21.8 µM) | 64 (≈ 43.7 µM) | 64 (≈ 43.7 µM) | 128 (≈ 87.4 µM) | 128 (≈ 87.4 µM) | >128 | – | – | – | – | – | – | – | toxicity (MTT) (HepG2 cells): did not show toxicity at the range of concentrations tested |
| CC(C)C[C@H](NC(=O)[C@H](CC(C)C)NC(=O)[C@H](CCCCN)NC(=O)[C@H](CC(C)C)NC(=O)[C@H](CC(C)C)NC(=O)[C@H](CCCCNC(=O)[C@H](CCCCN)NC(=O)[C@H](CC(C)C)NC(=O)[C@H](CCCCN)NC(=O)[C@H](CCCCNC(=O)[C@H](CCCCN)NC(=O)[C@H](CC(C)C)NC(=O)[C@@H](N)CCCCN)NC(=O)[C@H](CCCCN)NC(=O)[C@H](CC(C)C)NC(=O)[C@@H](N)CCCCN)NC(=O)[C@H](CCCCN)NC(=O)[C@H](CC(C)C)NC(=O)[C@H](CCCCN)NC(=O)[C@H](CCCCNC(=O)[C@H](CCCCN)NC(=O)[C@H](CC(C)C)NC(=O)[C@@H](N)CCCCN)NC(=O)[C@H](CCCCN)NC(=O)[C@H](CC(C)C)NC(=O)[C@@H](N)CCCCN)C(N)=O [G2KLK-L2KL2, (KLK)4(KKLK)2KLLKLL-NH2] (I: H-KLKK([Lys-Leu-Lys])KLKKLLKLL-NH2 / II: H-KLKK([Lys-Leu-Lys])KLK; amide I:8-II:C) | 16 (≈ 5 µM) | 8 to 16 | 32 (≈ 10 µM) | 16 (≈ 5 µM) | 8 (≈ 2.5 µM) | 8 (≈ 2.5 µM) | 32 (≈ 10 µM) | 32 (≈ 10 µM) | 32 (≈ 10 µM) | less capacity to delay growth | 124 (≈ 38.7 µM) | 116 (≈ 36.2 µM) | 32 (≈ 10 µM) | 64 (≈ 20 µM) | – | – | – |
| C[C@@H](O)[C@H]1C(=O)N2C(C(=O)O)=C(S[C@@H]3CN[C@H](C(=O)N(C)C)C3)[C@H](C)[C@H]12 [Meropenem, reference compound] | – | – | – | – | – | – | – | – | – | – | – | – | – | – | – | – | MIC (P. aeruginosa ATCC 27853; Pseudomonas aeruginosa, ATCC27853, P. aeruginosa ATCC 27853, read-out: MIC): 1 µg/mL (≈ 2.61 µM); MIC (E. coli ATCC 25822; Escherichia coli, ATCC25822): 0.125 µg/mL (≈ 0.326 µM); MIC (B. subtilis ATCC 6051; Bacillus subtilis, ATCC6051, B. subtilis ATCC 6051, read-out: MIC): 0.062 µg/mL (≈ 0.162 µM); MIC (S. aureus ATCC 29213; Staphylococcus aureus, ATCC29213, S. aureus ATCC 29213, read-out: MIC): 0.25 µg/mL (≈ 0.652 µM); MIC (E. faecium ATCC 35667; Enterococcus faecium, ATCC35667, E. faecium ATCC 35667, read-out: MIC): < 0.25 µg/mL; MIC (CRE, E. coli isolates; CRE E. coli isolate IMP JAP): 8 µg/mL (≈ 20.9 µM); MIC (CRE, E. coli isolates; CRE E. coli isolate KPC L2l): 16 µg/mL (≈ 41.7 µM); MIC (CRE, E. coli isolates; CRE E. coli isolate NDM4-FEK): > 32 µg/mL; MIC (CRE, E. coli isolates; CRE E. coli isolate OXA-48 501): 2 µg/mL (≈ 5.22 µM); MIC (CRE, E. coli isolates; CRE E. coli isolate VIM-1 BM-12): > 32 µg/mL |
| CC(C)C[C@H](NC(=O)[C@H](CC(C)C)NC(=O)[C@H](CCCN)NC(=O)[C@H](CC(C)C)NC(=O)[C@H](CC(C)C)NC(=O)[C@H](CCCCNC(=O)[C@H](CCCN)NC(=O)[C@H](CC(C)C)NC(=O)[C@H](CCCN)NC(=O)[C@H](CCCCNC(=O)[C@H](CCCN)NC(=O)[C@H](CC(C)C)NC(=O)[C@@H](N)CCCN)NC(=O)[C@H](CCCN)NC(=O)[C@H](CC(C)C)NC(=O)[C@@H](N)CCCN)NC(=O)[C@H](CCCN)NC(=O)[C@H](CC(C)C)NC(=O)[C@H](CCCN)NC(=O)[C@H](CCCCNC(=O)[C@H](CCCN)NC(=O)[C@H](CC(C)C)NC(=O)[C@@H](N)CCCN)NC(=O)[C@H](CCCN)NC(=O)[C@H](CC(C)C)NC(=O)[C@@H](N)CCCN)C(N)=O [G2OLO-L2OL2, (OLO)4(KOLO)2KLLOLL-NH2] (I: H-[Orn]L[Orn]K([Orn-Leu-Orn])[Orn]L[Orn]KLL[Orn]LL-NH2 / II: H-[Orn]L[Orn]K([Orn-Leu-Orn])[Orn]L[Orn]; amide I:8-II:C) | 32 (≈ 10.6 µM) | 32 (≈ 10.6 µM) | 32 (≈ 10.6 µM) | 32 (≈ 10.6 µM) | 32 (≈ 10.6 µM) | 32 (≈ 10.6 µM) | 32 (≈ 10.6 µM) | 32 (≈ 10.6 µM) | 8 (≈ 2.65 µM) | – | 141 (≈ 46.8 µM) | 199 (≈ 65.9 µM) | 8 (≈ 2.65 µM) | 64 (≈ 21.2 µM) | negligible | abolished bacterial growth | effect on growth curve (P. aeruginosa [1]; at the MIC): abolished growth; delay in growth (P. aeruginosa [1]; at ¼ MIC): ~2 h; delay in growth (P. aeruginosa [1]; at ½ MIC): 10 h; time–kill: effect on bacterial population (P. aeruginosa [3]; at MIC): killed all bacteria within the first hour of exposure and regrowth was observed after the second hour; time–kill: effect on bacterial population (P. aeruginosa [3]; at ¼ MIC): the bacterial population was not totally eliminated; time–kill: effect on bacterial population (P. aeruginosa [3]; at ½ MIC): the bacterial population was not totally eliminated |
| CC(C)C[C@H](NC(=O)[C@H](CC(C)C)NC(=O)[C@H](CCCN)NC(=O)[C@H](CC(C)C)NC(=O)[C@H](CC(C)C)NC(=O)[C@H](CCCCNC(=O)[C@H](CCCN)NC(=O)[C@H](CC(C)C)NC(=O)[C@@H](N)CCCN)NC(=O)[C@H](CCCN)NC(=O)[C@H](CC(C)C)NC(=O)[C@@H](N)CCCN)C(N)=O [G1OLO-L2OL2, (OLO)2KLLOLL-NH2] (H-[Orn]L[Orn]K([Orn-Leu-Orn])LL[Orn]LL-NH2) | 16 (≈ 11.5 µM) | 16 (≈ 11.5 µM) | 8 (≈ 5.74 µM) | 8 (≈ 5.74 µM) | 32 (≈ 22.9 µM) | 32 (≈ 22.9 µM) | 64 (≈ 45.9 µM) | 64 (≈ 45.9 µM) | 16 (≈ 11.5 µM) | no effect | – | 470 (≈ 337 µM) | 16 (≈ 11.5 µM) | 64 (≈ 45.9 µM) | negligible | abolished bacterial growth | delay in growth (P. aeruginosa [1]; at the MIC): approximately 6 h; toxicity (MTT) (HEK293 cells): did not show toxicity; time–kill: effect on bacterial population (P. aeruginosa [3]; any concentration tested (MIC, ½ MIC, ¼ MIC)): had no effect at any concentration tested |
